Patent publication US6121252A, “Phosphinic acid derivatives” (priority 1998, dated 2000)
Blank lines part the entries; values can stand above or below the compound they belong to. Peptide text beside a SMILES is read from it.

How the values were obtained:
[1] = biological target: T1, NAALADase (Rattus norvegicus, UniProt P70627); assay: In vitro inhibition of NAALADase activity; assay type: biochemical
T1 construct: synaptosomal protein; from tissue; host or cells: synaptosomes (brain tissue)
Excerpt: "Inhibition", in the context of enzymes, refers to reversible enzyme inhibition such as competitive, uncompetitive and non-competitive inhibition. Competitive, uncompetitive and non-competitive inhibition can be distinguished by the effects of an inhibitor on the reaction kinetics of an enzyme. […] The affinity between the inhibitor and the enzyme may be measured by the inhibitor constant, Ki, which is defined as: [formula] wherein [E] is the concentration of the enzyme, [I] is the concentration of the inhibitor, and [EI] is the concentration of the enzyme-inhibitor complex formed by the reaction of the enzyme with the inhibitor. Unless otherwise specified, Ki as used herein refers to the affinity between the inventive compounds and NAALADase.
Various compounds of formula I were tested for in vitro inhibition of NAALADase activity.
Substrate and product were resolved by anion-exchange liquid chromatography. […] Quisqualate (100 μM) was included in parallel assay tubes to confirm the specificity of the measurements.

[2] = tested on: cortical cell cultures; assay: In vitro ischemia assay (KCN/2-DG) in cortical cell cultures; assay type: cell-based, rat; settings: Rattus norvegicus, 1 h, read-out: EC50 (50% reduction in glutamate toxicity following an ischemic insult); KCN/2-DG insult, compound during insult and one hour thereafter
[3] = tested on: LNCaP tumors; assay: In vivo LNCaP tumor model, subcutaneous Compounds 16, 17, 18; parameters: species or system ncr nude male mice; settings: for tumor response (in words): 1 and 3 mg/kg s.c.
Method: Ncr nude male mice, age 5 to 6 weeks, were injected in the right flank with 5×10^6 LNCaP cells in Matrigel™ (0.1 ml total injection volume). Two weeks following cell injection, daily s.c. injections of Compound 16, Compound 17, and Compound 18 were initiated at the following doses: 1 and 3 mg/kg. Controls received 50 mM HEPES s.c. daily. Once tumors were palpable they were measured twice a week.
Response to treatment was monitored in two ways. First, mean tumor volume for each group was presented as tumor:control ratio (% T/C) and these values were compared at one point in time. Second, tumor volume versus time was monitored.

[4] = tested on: spinal cord organotypic cultures; assay: ALS model: ChAT activity of spinal cord organotypic cultures with THA; assay type: cell-based, rat; settings: Rattus norvegicus, THA alone, 100 μM
Method: Organotypic cultures were prepared from lumbar spinal cord of 8 day old rats, as described by Rothstein et al., J. Neurochem., Vol. 65, No. 2 (1995), and Rothstein et al., Proc. Natl. Acad. Sci. USA, Vol. 90, pp. 6591-6595 (July 1993). In brief, lumbar spinal cords were removed and sliced into […]-thick-dorsal-ventral sections, and five slices were placed on Millipore CM semipermeable 30-mm-diameter membrane inserts. The inserts were placed on 1 ml of culture medium in 35-mm-diameter culture wells. Culture medium consisted of 50% minimal essential medium and phosphate-free HEPES (25 mM), 25% heat-inactivated horse serum, and 25 Hanks' balanced salt solution (GIBCO) supplemented with D-glucose (25.6 mg/ml) and glutamine (2 mM), at a final pH of 7.2. Antibiotic and antifungal agents were not used. Cultures were incubated at 37° C. in 5% CO2 containing humidified environment (Forma Scientific). Culture medium, along with any added pharmacological agents, was changed twice weekly.
Drugs were incubated for an additional 13 to 20 days with the 100 μM THA. At the end of this period, cultures were collected assayed for ChAT activity as described below.
To determine choline acetyltransferase (CHAT) activity, the spinal cord tissues in each dish (five slices) were pooled and frozen (-75° C.) until assay. CHAT activity was measured radiometrically by described methods using [^3 H]acetyl-CoA (Amersham; Fonnum, 1975). Protein content of tissue homogenate was determined by a Coomassi Protein Assay kit (Pierce, Rockford, Ill.).

[5] = tested on: dopaminergic neurons; assay: Parkinson's Disease model: MPTP lesioned mice; assay type: in vivo, CD1 mice
Method: To examine the effect of NAALADase inhibitors on Parkinson's Disease in vivo, MPTP lesioned mice were treated with 2-(phosphonomethyl)pentanedioicacid or a vehicle.
MPTP lesioning of dopaminergic neurons in mice was used as an animal model of Parkinson's Disease, as described by Steiner, Proc. Natl. Acad. Sci., Vol. 94, pp. 2019-2024 (March 1997). In brief, four week old male CD1 white mice were dosed IP with 30 mg/kg of MPTP for 5 days. […] At 18 days following MPTP treatment, the mice were sacrificed and their brains were removed and sectioned. Immunostaining was performed on saggital and coronal brain sections using anti-tyrosine hydroxylase (TH) antibodies to quantitate survival and recovery of dopaminergic neurons.

[6] = tested on: cortical cell cultures; assay: In vitro toxicity of NAAG in cortical cell cultures; assay type: cell-based; settings: Rattus norvegicus, 20 min
Method: Experiments are performed after 21 days in cultures.
At the end of exposure, the cells are washed once with HEPES buffered saline solution and then replaced with serum free modified Earle's basal medium. The cultures are then returned to the CO2 incubator for 24 hour recovery.
This control measurement is subtracted from each experimental point.

T1 sequence (P70627 whole entry): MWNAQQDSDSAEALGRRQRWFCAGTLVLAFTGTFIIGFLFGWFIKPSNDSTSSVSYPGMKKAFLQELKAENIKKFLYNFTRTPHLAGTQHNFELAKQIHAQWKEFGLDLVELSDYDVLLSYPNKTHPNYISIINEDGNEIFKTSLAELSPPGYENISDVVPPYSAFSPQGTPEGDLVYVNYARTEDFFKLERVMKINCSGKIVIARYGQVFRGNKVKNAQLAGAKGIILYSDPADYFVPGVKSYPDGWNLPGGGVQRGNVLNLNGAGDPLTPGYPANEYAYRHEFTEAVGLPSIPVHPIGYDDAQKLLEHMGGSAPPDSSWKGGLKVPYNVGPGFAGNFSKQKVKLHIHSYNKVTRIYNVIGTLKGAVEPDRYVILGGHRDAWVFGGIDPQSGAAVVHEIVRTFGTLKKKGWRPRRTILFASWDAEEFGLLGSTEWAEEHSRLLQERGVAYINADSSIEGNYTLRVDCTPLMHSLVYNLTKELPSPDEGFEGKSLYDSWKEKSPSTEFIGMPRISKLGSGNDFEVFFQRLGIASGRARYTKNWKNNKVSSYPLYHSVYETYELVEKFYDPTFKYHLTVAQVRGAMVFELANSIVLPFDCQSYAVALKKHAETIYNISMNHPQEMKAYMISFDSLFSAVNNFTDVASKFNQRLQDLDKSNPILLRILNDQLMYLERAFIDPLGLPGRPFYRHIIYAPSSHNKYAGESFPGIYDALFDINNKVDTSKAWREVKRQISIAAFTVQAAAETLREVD

Ki [1]: 2000 nM
Compound: O=C(O)CCC(CP(=O)(O)C(NC(=O)O)c1ccccc1)C(=O)O (stereo not shown)

Ki [1]: 34.5 nM
Compound: O=C(O)CCC(CP(=O)(O)CN1C(=O)c2ccccc2C1=O)C(=O)O (stereo not shown)

Ki [1]: 90 nM
Compound: O=C(O)CCC(CP(=O)(O)CNS(=O)(=O)c1ccccc1)C(=O)O (stereo not shown)

Compound: O=C(O)CCC(CP(=O)(O)C(NCc1ccccc1)c1ccccc1)C(=O)O (stereo not shown)
EC50 [2]: 1 nM

Compound: O=C(O)CCC(CP(=O)(O)CNCc1ccccc1)C(=O)O (stereo not shown)
EC50 [2]: 0.9 nM

Compound: 2-[[[hydroxy(pyridyl)methyl]hydroxyphosphinyl]methyl]pentanedioic acid [Compound 18]
tumor size, % of control tumors ([3]; 1 mg/kg s.c.): 54 % of controls | tumor size, % of control tumors ([3]; 3 mg/kg s.c.): 58 % of controls | tumor response (in words) [3]: responded better

Compound: N[C@H](C(=O)O)[C@H](O)C(=O)O (relative stereo) [THA, threohydroxyaspartate]
activity at 100 µM [4]: 36 ± 12.1%

Compound: O=C(O)CCC(CP(=O)(O)Cc1c(F)c(F)c(F)c(F)c1F)C(=O)O (stereo not shown) [Compound 16, 2-[[(pentafluorobenzyl)hydroxyphosphinyl]methyl]pentanedioic acid]
tumor size, % of control tumors ([3]; 1 mg/kg s.c.): 78 % of controls | tumor size, % of control tumors ([3]; 3 mg/kg s.c.): 41.4 % of controls

Compound: O=C(O)CCC(CP(=O)(O)Cc1cccc(C(F)(F)F)c1)C(=O)O (stereo not shown) [Compound 17, 2-[[(3-trifluoromethylbenzyl)hydroxyphosphinyl]methyl]pentanedioic acid]
tumor size, % of control tumors ([3]; 1 mg/kg s.c.): 74.1 % of controls | tumor size, % of control tumors ([3]; 3 mg/kg s.c.): 82 % of controls | tumor response (in words) [3]: responded minimally

Compound: CN1CC=C(c2ccccc2)CC1 [MPTP]
loss of functional dopaminergic terminals ([5]; MPTP and vehicle vs non-lesioned mice): approximately 68% | Percent Striatal TH Innervation Density ([5]; MPTP/vehicle, mean ± SEM): 7.82 ± 0.68%

Compound: CC(=O)N[C@@H](CC(=O)O)C(=O)N[C@@H](CCC(=O)O)C(=O)O [NAAG, N-acetyl-aspartyl-glutamate] (Ac-Asp-Glu-OH)
cytotoxicity at 3 µM [6]: 3.51% | cytotoxicity at 10 µM [6]: 4.3 ± 3.12% | cytotoxicity at 30 µM [6]: 11.4 ± 6.17% | cytotoxicity at 100 µM [6]: 12.7 ± 5.5% | cytotoxicity at 300 µM [6]: 13.5 ± 4% | cytotoxicity at 1000 µM [6]: 21.5 ± 4.2% | cytotoxicity at 3000 µM [6]: 45.1 ± 4.96%

Ki [1]: 9 nM
Compound: O=C(O)CCC(CP(=O)(O)CNc1ccc(F)cc1)C(=O)O (stereo not shown) [drawing 29]

Ki [1]: 2.5 nM
Compound: COc1ccc(NCP(=O)(O)CC(CCC(=O)O)C(=O)O)cc1 (stereo not shown) [drawing 30]

Ki [1]: 5.2 nM
Compound: Cc1ccc(NCP(=O)(O)CC(CCC(=O)O)C(=O)O)cc1 (stereo not shown) [drawing 31]

Ki [1]: 2 nM
Compound: CC(C)(C)c1ccc(NCP(=O)(O)CC(CCC(=O)O)C(=O)O)cc1 (stereo not shown) [drawing 32]

Compound: O=C(O)CCC(CP(=O)(O)CNc1ccc(F)cc1)C(=O)O (stereo not shown) [drawing 39]
EC50 [2]: 3.1 nM

Compound: COc1ccc(NCP(=O)(O)CC(CCC(=O)O)C(=O)O)cc1 (stereo not shown) [drawing 40]
EC50 [2]: 9.5 nM

Compound: Cc1ccc(NCP(=O)(O)CC(CCC(=O)O)C(=O)O)cc1 (stereo not shown) [drawing 41]
EC50 [2]: 11.4 nM

Compound: CC(C)(C)c1ccc(NCP(=O)(O)CC(CCC(=O)O)C(=O)O)cc1 (stereo not shown) [drawing 42]
EC50 [2]: 34.6 nM
